This is an account of results in ChEMBL document CHEMBL1150034, “Synthesis of peptidyl acetals as inhibitors of prolyl endopeptidase” (Bioorg Med Chem Lett, 1995).

The pIC50 is the IC50 on a negative log10 scale, so that one unit is a factor of ten.

pIC50: −log10 of the molar value.

The assay concerns the target T1, Prolyl endopeptidase (Homo sapiens, UniProt P48147).
T1 sequence (P48147 whole entry): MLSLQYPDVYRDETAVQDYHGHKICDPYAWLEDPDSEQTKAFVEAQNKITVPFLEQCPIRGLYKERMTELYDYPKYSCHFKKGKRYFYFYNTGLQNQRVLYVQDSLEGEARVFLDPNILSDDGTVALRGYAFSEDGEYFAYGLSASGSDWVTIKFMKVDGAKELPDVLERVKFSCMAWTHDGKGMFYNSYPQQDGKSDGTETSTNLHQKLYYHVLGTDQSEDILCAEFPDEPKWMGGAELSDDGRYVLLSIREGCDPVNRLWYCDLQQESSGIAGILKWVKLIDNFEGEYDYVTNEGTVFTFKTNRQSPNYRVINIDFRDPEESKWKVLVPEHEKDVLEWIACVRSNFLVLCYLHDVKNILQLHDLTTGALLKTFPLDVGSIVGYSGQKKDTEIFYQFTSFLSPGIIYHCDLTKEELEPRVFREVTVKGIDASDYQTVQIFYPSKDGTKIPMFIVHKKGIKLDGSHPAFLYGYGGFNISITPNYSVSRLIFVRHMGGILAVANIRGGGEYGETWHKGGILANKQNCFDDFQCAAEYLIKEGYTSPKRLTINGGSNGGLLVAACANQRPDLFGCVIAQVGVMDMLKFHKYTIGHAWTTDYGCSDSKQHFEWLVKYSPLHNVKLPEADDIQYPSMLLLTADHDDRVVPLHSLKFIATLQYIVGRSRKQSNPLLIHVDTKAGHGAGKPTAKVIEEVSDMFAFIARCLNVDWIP
The assay is described as follows: Compound was evaluated for the inhibition of prolyl endopeptidase (PEP) purified from human peripheral blood mononuclear cells.

Compound `COCC1COC(C2CCCN2C(=O)C2CCCN2C(=O)OCc2ccccc2)O1` (configuration not stated) gave a pIC50 of 5.19.
Regarding `COC(OC)C1CSCN1C(=O)C1CSCN1C(=O)OCc1ccccc1` (configuration not stated), the pIC50 was 5.59.
